Data: ChEMBL document CHEMBL4270567, “Multi-target-directed ligands for treating Alzheimer's disease: Butyrylcholinesterase inhibitors displaying antioxidant and neuroprotective activities” (Eur J Med Chem, 2018)
Active and inactive are the calls of the source. No cut-off for these calls is given here.

Key:
[1] = target: Acetylcholinesterase (AChE) (Homo sapiens, UniProt P22303); assay: in vitro; settings: human AChE enzyme, probe acetylthiocholine iodide
Description: Inhibition of human AChE using acetylthiocholine iodide as substrate assessed as residual activity at 10 uM preincubated for 5 mins followed by substrate addition and measured for 1 min by Ellman's assay relative to control

Cholinesterase [2] = target: T1, Cholinesterase (Homo sapiens, UniProt P06276)
Description: Inhibition of human BChE using butyrylthiocholine iodide as substrate preincubated for 5 mins followed by substrate addition and measured for 1 min by Ellman's assay

[3] = Binding affinity to Cu2+ assessed as decrease in hydroxyl radical formation at 40 uM by CCA ascorbate assay
[4] = Metal chelating activity of the compound assessed as Mg2+-compound complex formation at 30 uM after 5 mins by UV-vis spectrophotometric analysis
SH-SY5Y [5] = assay: Neuroprotection activity against amyloid beta (1 to 42)-induced toxicity in human SH-SY5Y cells at 1 uM preincubated with amyloid beta (1 to 42) for 24 hrs followed by cell addition and measured after 48 hrs by MTS assay; type: functional, cell-based
[6] = Metal chelating activity of the compound assessed as Ca2+-compound complex formation at 30 uM after 5 mins by UV-vis spectrophotometric analysis
[7] = Permeability across basolateral to apical side in human Caco2 cells at 100 uM after 20 mins by HPLC-UV analysis; type: ADME, cell-based; settings: Caco-2
[8] = Metal chelating activity of the compound assessed as Cu2+-compound complex formation at 30 uM after 5 mins by UV-vis spectrophotometric analysis
[9] = Metal chelating activity of the compound assessed as Al3+-compound complex formation at 30 uM after 5 mins by UV-vis spectrophotometric analysis
[10] = Cytotoxicity against human SH-SY5Y cells after 48 hrs by MTS assay; type: cell-based; settings: read-out: LD50
[11] = Metal chelating activity of the compound assessed as Mn2+-compound complex formation at 30 uM after 5 mins by UV-vis spectrophotometric analysis
SH-SY5Y [12] = assay: Inhibition of H2O2-induced ROS generation in human SH-SY5Y cells at 5 uM preincubated for 30 mins followed by H2O2 addition and measured after 90 mins by DCFH-DA staining-based fluorescence assay; type: functional, cell-based
[13] = Metal chelating activity of the compound assessed as Fe2+-compound complex formation at 30 uM after 5 mins by UV-vis spectrophotometric analysis
[14] = Permeability across apical to basolateral side in human Caco2 cells at 100 uM after 20 mins by HPLC-UV analysis; type: ADME, cell-based; settings: Caco-2
[15] = Metal chelating activity of the compound assessed as Co2+-compound complex formation at 30 uM after 5 mins by UV-vis spectrophotometric analysis
[16] = Metal chelating activity of the compound assessed as Zn2+-compound complex formation at 30 uM after 5 mins by UV-vis spectrophotometric analysis
[17] = Metal chelating activity of the compound assessed as Ni2+-compound complex formation at 30 uM after 5 mins by UV-vis spectrophotometric analysis
human recombinant BChE = assay: Selectivity index, ratio of LD50 for human SH-SY5Y cells to IC50 for human recombinant BChE; type: toxicity; settings: read-out: Ratio LD50/IC50
[18] = Efflux ratio of permeability from basolateral to apical over apical to basolateral side in human Caco2 cells at 100 uM after 20 mins by HPLC-UV analysis; type: ADME, cell-based; settings: Caco-2
Cholinesterase [19] = target: T1, Cholinesterase; assay: Competitive inhibition of human BChE using butyrylthiocholine iodide as substrate preincubated for 5 mins followed by substrate addition and measured for 1 min by Lineweaver Burk plot analysis
Cholinesterase [20] = target: T1, Cholinesterase; assay: Inhibition of human recombinant BChE using butyrylthiocholine as substrate preincubated for 300 secs followed by substrate addition and measured for 1 min by Ellman's assay

Chain of Acetylcholinesterase (AChE) (P22303 whole entry): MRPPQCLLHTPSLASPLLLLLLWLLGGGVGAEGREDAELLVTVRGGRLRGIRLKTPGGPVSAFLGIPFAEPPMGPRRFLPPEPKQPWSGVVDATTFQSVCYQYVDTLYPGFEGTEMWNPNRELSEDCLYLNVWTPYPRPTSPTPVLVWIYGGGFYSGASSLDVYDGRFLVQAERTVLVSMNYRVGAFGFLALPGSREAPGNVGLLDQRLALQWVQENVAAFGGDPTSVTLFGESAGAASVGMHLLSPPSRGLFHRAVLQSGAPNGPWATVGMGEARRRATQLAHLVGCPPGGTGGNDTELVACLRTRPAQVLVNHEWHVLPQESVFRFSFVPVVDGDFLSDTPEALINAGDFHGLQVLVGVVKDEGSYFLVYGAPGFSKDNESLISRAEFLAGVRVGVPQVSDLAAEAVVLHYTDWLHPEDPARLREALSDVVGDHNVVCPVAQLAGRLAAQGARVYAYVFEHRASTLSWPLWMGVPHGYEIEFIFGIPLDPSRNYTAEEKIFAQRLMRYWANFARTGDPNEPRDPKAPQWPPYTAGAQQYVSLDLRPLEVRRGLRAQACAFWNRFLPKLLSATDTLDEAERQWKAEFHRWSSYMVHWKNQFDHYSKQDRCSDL
T1 sequence (P06276 whole entry): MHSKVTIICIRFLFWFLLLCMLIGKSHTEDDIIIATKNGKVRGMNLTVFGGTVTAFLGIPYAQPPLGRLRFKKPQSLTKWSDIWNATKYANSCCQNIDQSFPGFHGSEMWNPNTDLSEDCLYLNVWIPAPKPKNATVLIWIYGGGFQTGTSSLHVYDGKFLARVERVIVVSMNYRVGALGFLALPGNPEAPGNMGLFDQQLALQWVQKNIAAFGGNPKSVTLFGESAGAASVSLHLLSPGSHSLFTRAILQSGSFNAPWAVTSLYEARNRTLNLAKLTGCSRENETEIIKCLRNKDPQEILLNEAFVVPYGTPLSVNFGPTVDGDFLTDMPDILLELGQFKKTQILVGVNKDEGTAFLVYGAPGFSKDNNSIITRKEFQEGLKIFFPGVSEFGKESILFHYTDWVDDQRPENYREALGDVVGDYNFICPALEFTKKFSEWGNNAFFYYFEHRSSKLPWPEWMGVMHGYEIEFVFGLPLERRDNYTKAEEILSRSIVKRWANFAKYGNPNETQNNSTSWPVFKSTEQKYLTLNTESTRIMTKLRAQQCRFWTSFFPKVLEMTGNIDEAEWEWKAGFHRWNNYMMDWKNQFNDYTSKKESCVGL

| SMILES | activity at 1 min, 10 µM [1] [%] | IC50 (Cholinesterase [2]) [nM] | other results |
| --- | --- | --- | --- |
| CN(C)CCN(CC1CCCN(C2Cc3ccccc3C2)C1)C(=O)c1cccc(O)c1 (racemic) | > 80 | 2490 | – |
| Oc1cccc2cccnc12 | – | – | Activity [3]: Active |
| CN(C)CCN(CC1CCCN(Cc2csc(Nc3ccccn3)n2)C1)C(=O)c1ccc2ccccc2c1 (racemic) | > 80 | 103 | – |
| CN(C)CCN(CC1CCCN(C2Cc3ccccc3C2)C1)C(=O)c1ccc2cccnc2c1O (racemic) | > 80 | – | Activity [4]: Active; Activity (SH-SY5Y [5]): inactive; Activity [6]: Active; Papp B→A at 20 min, 100 µM [7]: 22.8 ×10⁻⁶ cm/s; Activity [8]: Active; Activity [9]: Active; CC50 at 48 h [10]: 9550 nM; Activity [11]: Active; inhibition (SH-SY5Y [12]): Active; Activity [13]: Active; Papp A→B at 20 min, 100 µM [14]: 15.1 ×10⁻⁶ cm/s; Activity [15]: Active; Activity [3]: Active; Activity [16]: Active; Activity [17]: Active |
| Cc1c(C)c2c(c(C)c1O)CCC(C)(C(=O)N(CCN(C)C)CC1CCCN(C3Cc4ccccc4C3)C1)O2 (racemic) | > 80 | 6920 | – |
| CN(C)CCN(CC1CCCN(C2Cc3ccccc3C2)C1)C(=O)c1cn2cccc(O)c2n1 (racemic) | > 80 | 135 | – |
| CN(C)CCN(CC1CCCN(C2Cc3ccccc3C2)C1)C(=O)c1cc2ccccc2oc1=O (racemic) | > 80 | 9.5 | – |
| CN(C)CCN(CC1CCCN(C2Cc3ccccc3C2)C1)C(=O)c1ccc2cccc(O)c2n1 (racemic) | 75.8 | 11.1 | Activity (SH-SY5Y [5]): Active; Papp B→A at 20 min, 100 µM [7]: 35.1 ×10⁻⁶ cm/s; Activity [8]: Active; selectivity ratio (human recombinant BChE): > 700; Activity [9]: Active; CC50 at 48 h [10]: 9700 nM; efflux ratio at 20 min, 100 µM [18]: 1.6; inhibition (SH-SY5Y [12]): Active; Activity [13]: Active; Papp A→B at 20 min, 100 µM [14]: 21.5 ×10⁻⁶ cm/s; Activity [15]: Active; Ki (Cholinesterase [19]): 1.09 nM; Activity [3]: Active; Activity [16]: Active; Activity [17]: Active |
| CN(C)CCN(CC1CCCN(C2Cc3ccccc3C2)C1)C(=O)c1cc([N+](=O)[O-])c2cccnc2c1O (racemic) | > 80 | 28 | – |
| CN(C)CCN(CC1CCCN(C2Cc3ccccc3C2)C1)C(=O)/C=C/c1ccc(O)cc1 (racemic) | > 80 | 71 | – |
| CN(C)CCN(CC1CCCN(C2Cc3ccccc3C2)C1)C(=O)c1csc(Nc2ccccn2)n1 (racemic) | > 80 | 635 | – |
| COc1ccc(C(=O)N(CCN(C)C)CC2CCCN(C3Cc4ccccc4C3)C2)cc1 (racemic) | > 80 | 237 | – |
| CN(C)CCN(CC1CCCN(C2Cc3ccccc3C2)C1)C(=O)c1ccc(O)nc1 (racemic) | > 80 | 21000 | – |
| CN(C)CCN(CC1CCCN(C2Cc3ccccc3C2)C1)C(=O)c1ccc2c([N+](=O)[O-])ccc(O)c2n1 (racemic) | > 80 | 1610 | – |
| COCCN(CC1CCCN(C2Cc3ccccc3C2)C1)C(=O)c1ccc2cccnc2c1O (racemic) | > 80 | 266 | – |
| CC(=O)NC1=NN(C(C)=O)C(C)(c2ccccc2)S1 (centres undefined) | – | – | IC50 (Cholinesterase [20]): 4.9 nM |
| CN(C)CCN(CC1CCCN(C2Cc3ccccc3C2)C1)C(=O)c1ccc(O)cc1 (racemic) | > 80 | 1790 | – |
| CN(C)CCN(CC1CCCN(C2Cc3ccccc3C2)C1)C(=O)c1ccc(O)cc1O (racemic) | > 80 | 460 | – |
| CN(C)CCN(CC1CCCN(C2Cc3ccccc3C2)C1)C(=O)c1cc(O)c2cccc(O)c2n1 (racemic) | > 80 | 19 | – |
| CN(C)CCN(CC1CCCN(Cc2ccc3cccc(O)c3n2)C1)C(=O)c1ccc2ccccc2c1 (racemic) | > 80 | 48.1 | – |
| CN(C)CCN(CC1CCCN(C2Cc3ccccc3C2)C1)C(=O)[C@@H]1N=C(c2ccccc2O)CS1 (mixture of isomers) | 72.9 | 229 | – |
